79 molecules from PubChem BioAssay AID1549 (Sanford-Burnham Center for Chemical Genomics, 2009) can be followed below.

Activity calls are given as the source filed them. The rule behind the calls is not given here.

The target of the assay is Influenza A virus M2 proton channel (A/TW/4845/1999 H1N1). The assay is described as follows: M2 proton channel binding, NMR based, influenza A virus H1N1 strain (AID 1549). The following applies: NMR binding screen, M2 protein.
With `S=c1nc[nH]c2c1cnn2-c1ccccc1`, the Kd is > 4 mM (inactive).

As for `O=C1O[C@H](C(O)CO)C(O)=C1O` (some centres undefined), the Kd was > 4 mM (inactive).

`CCOC(=O)CNC(=O)CSc1nnc(C)c(=O)[nH]1`: the Kd was > 4 mM (inactive).

As for `COc1ccc(/C=C2/N=C(N)SC2=O)cc1`, the Kd was > 4 mM (inactive).

With `O=C1CSC(c2ccc3c(c2)OCO3)N1` (centres undefined), the Kd was > 4 mM (inactive).

Take `CCc1cc2c(SCC(=O)O)ncnc2s1`: the Kd was > 4 mM (inactive).

Regarding `O=C(/C(=N\O)n1cncn1)c1ccccc1Cl`, the Kd was > 4 mM (inactive).

As to `CN(C)S(=O)(=O)c1ccccc1C#N`, the Kd was > 4 mM (inactive).

Take `COC(=O)CC1NC2CCCCC2NC1=O` (centres undefined): the Kd is > 4 mM (inactive).

Regarding `CCOC(=O)CNc1ncnc2c1nnn2CC`, the Kd is > 4 mM (inactive).

Regarding `Cn1c(=O)c2cn3ncccc3c2n(C)c1=O`, the Kd was > 4 mM (inactive).

For the molecule `COc1cc([C@H]2Oc3cc([C@H]4Oc5cc(O)cc(O)c5C(=O)[C@@H]4O)ccc3O[C@@H]2CO)ccc1O`, the Kd is > 4 mM (inactive).

For `O=C(Nc1cccnc1)Nc1ccc2c(c1)OCO2`, the Kd was > 4 mM (inactive).

For `Nc1ccc(NS(=O)(=O)c2ccc(N)cc2)cc1`, the Kd is > 4 mM (inactive).

As for `O=C(COc1ccccc1O)NCCO`, the Kd was > 4 mM (inactive).

On to `O=C(CCc1ccc(O)cc1)c1c(O)cc(O)cc1O`, for which the Kd was > 4 mM (inactive).

`COCC(=O)Nc1nc2ccc(C)cc2s1`: the Kd was > 4 mM (inactive).

As to `Cc1nn(C)c(Cl)c1C(O)c1c(C)nn(C)c1Cl`, the Kd was > 4 mM (inactive).

Turning to `Nc1cccc(NC(=O)c2cccs2)c1`, the Kd is > 4 mM (inactive).

With `NC(=O)c1ccc(C(N)=O)c(-c2ccccc2)c1`, the Kd was > 4 mM (inactive).

As to `NC(Cn1ccc(=O)c(O)c1)C(=O)O` (centres undefined), the Kd was > 4 mM (inactive).

With `COC(=O)c1ccc(N2CCCC2)nc1`, the Kd is > 4 mM (inactive).

For `NC(=O)CSc1nc2ncnc(N)c2[nH]1`, the Kd is > 4 mM (inactive).

Consider `COc1ccccc1NC(=O)C1CCCCC1`, for which the Kd was > 4 mM (inactive).

On to `CC1=NN(C(N)=S)C(C)(C)C1`, for which the Kd was > 4 mM (inactive).

In the case of `CC(=O)Nc1cnn(-c2ccccc2)c(=O)c1Cl`, the Kd was > 4 mM (inactive).

Consider `O=C1CC(=O)N(Cc2ccco2)C(=S)N1`, for which the Kd is > 4 mM (inactive).

`CS(=O)(=O)c1ccc(N)cc1`: the Kd is > 4 mM (inactive).

As for `Cc1c(O)c(O)cc2c1CC=C1[C@@]2(C)CC[C@@]2(C)C3C[C@](C)(C(=O)O)CC[C@]3(C)CC[C@]12C` (some centres undefined), the Kd was > 4 mM (inactive).

With `Cc1cc(C(=O)N2CCN(c3ncccn3)CC2)cs1`, the Kd was > 4 mM (inactive).

In the case of `NC1CCN(Cc2ccccc2)CC1`, the Kd was > 4 mM (inactive).

With `Nc1cc(N)nc(SCc2ccccc2)n1`, the Kd was > 4 mM (inactive).

In the case of `Cn1c(=O)n(C)c2nc([N+](=O)[O-])c(Cl)cc21`, the Kd is > 4 mM (inactive).

In the case of `CC(C)=CCOc1cc2oc(=O)ccc2cc1O`, the Kd is > 4 mM (inactive).

On to `CC(=O)Nc1cc(C(N)=O)cc(C(N)=O)c1`, for which the Kd was > 4 mM (inactive).

On to `CCNC(=S)N1CCC(C(N)=O)CC1`, for which the Kd is > 4 mM (inactive).

Turning to `Cc1cc(C(=O)Nc2ccccn2)no1`, the Kd is > 4 mM (inactive).

Take `NC(=O)C1CCN(C(=S)c2cccs2)CC1`: the Kd is > 4 mM (inactive).

`CC(NC(=O)c1ccco1)C1CCCO1` (centres undefined): the Kd was > 4 mM (inactive).

In the case of `O=C(O)c1ccc2ccccc2n1`, the Kd is > 4 mM (inactive).

Take `CNC(Cc1c[nH]c2ccccc12)C(=O)O` (centres undefined): the Kd was > 4 mM (inactive).

In the case of `CC(=O)c1c(C)n([O-])c2ccccc2[n+]1=O`, the Kd was > 4 mM (inactive).

Consider `COc1ccc2c(c1)CCCN2C(N)=O`, for which the Kd is > 4 mM (inactive).

Regarding `Cn1c(=O)[nH]c(=O)c2nsnc21`, the Kd was > 4 mM (inactive).

Regarding `C=C1CCC(=O)C(C)CCC2C1CC2(C)C` (centres undefined), the Kd is > 4 mM (inactive).

Regarding `S=C(c1ccc2c(c1)OCO2)N1CCCC1`, the Kd was > 4 mM (inactive).

Turning to `O=C(Nc1ccc2ccccc2c1)c1cnccn1`, the Kd was > 4 mM (inactive).

As for `Nc1nnc(C(F)(F)F)s1`, the Kd was > 4 mM (inactive).

Take `COc1c2c(cc3c1OCO3)CCN(C)C2`: the Kd is > 4 mM (inactive).

Take `Cc1noc(C)c1C(=O)Nc1sc(C)c(C)c1C#N`: the Kd is > 4 mM (inactive).

Consider `Nc1ccc2c(c1)OCCO2`, for which the Kd is > 4 mM (inactive).

As to `Nc1ccc2c(c1)OCO2`, the Kd is > 4 mM (inactive).

`CCOC(=O)Cc1nc2ccccc2[nH]1`: the Kd is > 4 mM (inactive).

Take `CC1(C)CC[C@]2(C)CC[C@]3(C)C(=CCC4[C@@]5(C)CC[C@H](O)C(C)(C)C5CC[C@]43C)C2C1` (some centres undefined): the Kd is > 4 mM (inactive).

`C/C=C1\[C@H]2C=C(C)C[C@]1(N)c1ccc(=O)[nH]c1C2`: the Kd is > 4 mM (inactive).

Take `Cc1nnsc1C(=O)Nc1ccc(C(N)=O)cc1`: the Kd was > 4 mM (inactive).

With `COCCn1c(C)cc(O)cc1=O`, the Kd is > 4 mM (inactive).

With `O=C(NCC1CCNCC1)c1ccncc1`, the Kd is > 4 mM (inactive).

As to `NC(C(=O)O)C(O)c1ccccc1` (centres undefined), the Kd was > 4 mM (inactive).

Take `Cc1cc(=O)n2[nH]cnc2n1`: the Kd was > 4 mM (inactive).

In the case of `COc1cccc(C(=O)Nc2c(C)n[nH]c2C)c1`, the Kd is > 4 mM (inactive).

With `CSc1nc2nccc(N)n2n1`, the Kd was > 4 mM (inactive).

For the molecule `Nc1c(F)c(F)nc(F)c1F`, the Kd is > 4 mM (inactive).

Regarding `Nc1cc(=O)[nH]c(=S)n1-c1cccc(C(F)(F)F)c1`, the Kd is > 4 mM (inactive).

As to `OCCNc1nc2ccc(Cl)cc2[nH]1`, the Kd was > 4 mM (inactive).

`Cc1cccc(NC(=O)NC(N)=O)c1`: the Kd was > 4 mM (inactive).

With `O=C1C[C@@H](c2ccc(O)cc2)Oc2cc(O)cc(O)c21`, the Kd was > 4 mM (inactive).

As to `NCc1cccc(-n2cccc2)c1`, the Kd is > 4 mM (inactive).

Take `Cc1cc(F)c(F)c(C(=O)NC2CC2)c1Cl`: the Kd is > 4 mM (inactive).

As to `Cc1nc2ccccc2c(=O)n1-c1cccc(O)c1`, the Kd is > 4 mM (inactive).

As for `Cc1scc(C(=O)Nn2cnnc2)c1-c1ccccc1`, the Kd was > 4 mM (inactive).

Regarding `CSc1n[nH]c(NCc2ccccc2)n1`, the Kd was > 4 mM (inactive).

`COc1ccc(CN2CCOCC2)c(C)c1C`: the Kd is > 4 mM (inactive).

For `Nc1cc(F)nc(F)n1`, the Kd was > 4 mM (inactive).

With `O=C(c1ccco1)N1CCN(Cc2cccc(F)c2)CC1`, the Kd was > 4 mM (inactive).

As to `COc1ccc(C)cc1S(=O)(=O)NC1CCCC1`, the Kd was > 4 mM (inactive).

`O=C1COc2cc(O)ccc21`: the Kd was > 4 mM (inactive).

As to `O=C(O)Cc1c[nH]c2ccccc12`, the Kd is > 4 mM (inactive).

For `CSc1nnc2[nH]c(=O)cc(N)n12`, the Kd is > 4 mM (inactive).
